Test results reported in article PMC12207590, “Substrate Specificity of the Organic Cation Transporters MATE1 and MATE2K and Functional Overlap with OCT1 and OCT2” (Journal of Medicinal Chemistry, 2025).
Read-outs that look alike come from different tables or passages of the source.

Experiments:
MATE1 [1] = biological target: T1, MATE1 (Homo sapiens, UniProt Q96FL8); assay: Uptake ratio in MATE1-overexpressing HEK293 cells vs empty vector (2.5 μM, 1 min, HPLC-MS/MS); format: cell-based; settings: for MATE1 ratio in this study: Table S1
T1 sequence (Q96FL8 1-570): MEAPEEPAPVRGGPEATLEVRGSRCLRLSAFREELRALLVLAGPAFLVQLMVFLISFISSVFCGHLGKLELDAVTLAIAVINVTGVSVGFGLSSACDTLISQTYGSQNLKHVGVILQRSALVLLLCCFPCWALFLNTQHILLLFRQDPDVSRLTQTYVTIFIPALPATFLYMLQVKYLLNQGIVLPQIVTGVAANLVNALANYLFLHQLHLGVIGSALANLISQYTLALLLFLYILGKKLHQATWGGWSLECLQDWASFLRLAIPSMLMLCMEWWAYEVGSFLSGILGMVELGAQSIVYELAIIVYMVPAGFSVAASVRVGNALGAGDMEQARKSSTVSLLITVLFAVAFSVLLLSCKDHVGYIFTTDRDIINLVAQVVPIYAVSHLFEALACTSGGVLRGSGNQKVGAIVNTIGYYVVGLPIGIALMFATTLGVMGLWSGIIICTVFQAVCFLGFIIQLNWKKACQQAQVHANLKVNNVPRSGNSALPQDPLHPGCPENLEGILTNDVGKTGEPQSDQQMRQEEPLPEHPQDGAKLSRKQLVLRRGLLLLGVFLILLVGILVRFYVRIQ

MATE2K [2] = biological target: T2, MATE2K (Homo sapiens, UniProt Q86VL8); assay: Concentration-dependent uptake (Michaelis-Menten) via MATE2K in HEK293 cells; settings: HEK293, 1 min, net uptake; for Km: read-out: MATE2K KM
MATE2K [3] = biological target: T2, MATE2K; assay: Uptake ratio in MATE2K-overexpressing HEK293 cells vs empty vector (2.5 μM, 1 min, HPLC-MS/MS); format: cell-based; settings: for MATE2K ratio in this study: Table S1
MATE1 [4] = biological target: T1, MATE1; assay: Concentration-dependent uptake (Michaelis-Menten) via MATE1 in HEK293 cells; settings: HEK293, 1 min, net uptake; for Km: read-out: MATE1 KM
hCMEC [5] = assay: TS DPH hCMEC (Table S2); format: cell-based, human; set-up: scale not given here
hCMEC [6] = assay: TS MDAI hCMEC (Table S2); format: cell-based, human; set-up: scale not given here
[7] = fold uptake over empty vector, 2.5 μM, 1 min
[8] = uptake ratio MATE1-overexpressing vs empty-vector HEK293 cells, 2.5 μM, 1 min, mean
[9] = uptake ratio MATE2K-overexpressing vs empty-vector HEK293 cells, 2.5 μM, 1 min, mean

T2 sequence (Q86VL8 1-566 isoform Q86VL8-3): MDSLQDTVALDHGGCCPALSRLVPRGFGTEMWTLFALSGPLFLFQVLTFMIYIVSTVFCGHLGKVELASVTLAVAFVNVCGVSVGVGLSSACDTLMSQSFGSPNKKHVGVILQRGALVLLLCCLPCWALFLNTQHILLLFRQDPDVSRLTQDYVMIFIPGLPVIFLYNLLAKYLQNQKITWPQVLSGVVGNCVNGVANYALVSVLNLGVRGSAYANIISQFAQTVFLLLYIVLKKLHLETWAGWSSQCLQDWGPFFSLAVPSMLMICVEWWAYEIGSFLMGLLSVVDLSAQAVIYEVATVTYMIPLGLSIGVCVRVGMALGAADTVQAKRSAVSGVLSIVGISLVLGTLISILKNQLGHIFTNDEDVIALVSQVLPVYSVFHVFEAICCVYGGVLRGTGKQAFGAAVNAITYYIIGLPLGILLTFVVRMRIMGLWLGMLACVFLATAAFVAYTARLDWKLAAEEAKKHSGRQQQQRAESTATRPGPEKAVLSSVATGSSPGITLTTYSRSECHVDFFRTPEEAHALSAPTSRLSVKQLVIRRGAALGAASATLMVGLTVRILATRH

SMILES	MATE1 ratio (MATE1 [1]; [7])	MATE2K ratio (MATE2K [3]; [7])	TS DPH hCMEC (hCMEC [5]; Table S2)	TS MDAI hCMEC (hCMEC [6]; Table S2)	also measured
NCCc1ccc(O)c(O)c1 [Dopamine]	39.94	1.97	–	–	MATE2K Vmax (MATE2K [2]): 1219 pmol × mg protein^–1 × min^–1; Km (MATE2K [2]): 961 µM; MATE1 Vmax (MATE1 [4]): 10,148 pmol × mg protein^–1 × min^–1; Km (MATE1 [4]): 530 µM
Nc1nc(=O)n([C@@H]2CS[C@H](CO)O2)cc1F [Emtricitabine]	3.22	2.88	–	–	MATE1 ratio in this study (MATE1 [1]; 2.5 μM, 1 min): 3.22; MATE2K Vmax (MATE2K [2]): 2634 pmol × mg protein^–1 × min^–1; Km (MATE2K [2]): 873 µM; MATE2K ratio in this study (MATE2K [3]; 2.5 μM, 1 min): 2.88; MATE1 Vmax (MATE1 [4]): 4523 pmol × mg protein^–1 × min^–1; Km (MATE1 [4]): 992 µM
CNC[C@H](O)c1ccc(O)c(O)c1 [Epinephrine]	–	–	–	–	MATE2K Vmax (MATE2K [2]): 2968 pmol × mg protein^–1 × min^–1; Km (MATE2K [2]): 1510 µM; MATE1 Vmax (MATE1 [4]): 22,773 pmol × mg protein^–1 × min^–1; Km (MATE1 [4]): 1080 µM
COc1ccc2c3c1O[C@H]1C[C@@H](O)C=C[C@@]31CCN(C)C2 [Galantamine]	–	–	0.80	–	TS MDAI hCMEC (hCMEC [6]): 0.98; MATE1 ratio (MATE1 [1]): 1.18; MATE2K ratio (MATE2K [3]): 1.23
CN1C2CCCC1CC(NC(=O)c1nn(C)c3ccccc13)C2 (stereo not shown) [Granisetron]	1.22	1.25	0.43	0.28	–
CC[C@@H](C(N)=O)N1CCCC1=O [Levetiracetam]	1.19	1.28	1.17	1.19	–
COc1ccc2c(c1)N(C[C@H](C)CN(C)C)c1ccccc1S2 [Levomepromazine]	1.21	1.19	0.31	0.33	–
Cc1cccc(C(C)c2cnc[nH]2)c1C (stereo not shown) [Medetomidine]	1.11	1.21	0.79	0.96	–
CC12CC3CC(C)(C1)CC(N)(C3)C2 [Memantine]	1.03	1.18	0.24	0.14	MATE1 ratio in this study (MATE1 [1]; 2.5 μM, 1 min): 1.03; MATE2K ratio in this study (MATE2K [3]; 2.5 μM, 1 min): 1.18
CCC1(c2cccc(O)c2)CCCCN(C)C1 (stereo not shown) [Meptazinol]	–	–	–	–	TS DPH hCMEC (hCMEC [5]): 0.40; TS MDAI hCMEC (hCMEC [6]): 0.41; MATE1 ratio (MATE1 [1]): 1.21; MATE2K ratio (MATE2K [3]): 1.57
C[C@@H](O)[C@H]1C(=O)N2C(C(=O)O)=C(S[C@@H]3CN[C@H](C(=O)N(C)C)C3)[C@H](C)[C@H]12 [Meropenem]	1.32	1.33	1.20	1.00	–
Nc1nc(CC(=O)Nc2ccc(CCNC[C@H](O)c3ccccc3)cc2)cs1 [Mirabegron]	8.19	4.76	0.90	0.75	–
CNCC1CCCCC1(O)c1cccc(OC)c1 (stereo not shown) [N-Desmethyltramadol]	–	–	–	–	TS DPH hCMEC (hCMEC [5]): 0.37; TS MDAI hCMEC (hCMEC [6]): 0.64; MATE1 ratio (MATE1 [1]): 1.12; MATE2K ratio (MATE2K [3]): 1.19
C=CCN1CC[C@]23c4c5ccc(O)c4O[C@H]2C(=O)CC[C@@]3(O)[C@H]1C5 [Naloxone]	1.36	1.29	0.78	0.44	–
COCCOC(=O)C1=C(C)NC(C)=C(C(=O)OC(C)C)C1c1cccc([N+](=O)[O-])c1 (stereo not shown) [Nimodipine]	1.33	1.20	1.28	1.25	–
NC[C@H](O)c1ccc(O)c(O)c1 [Norepinephrine]	–	–	–	–	MATE2K Vmax (MATE2K [2]): 673 pmol × mg protein^–1 × min^–1; Km (MATE2K [2]): 1150 µM; MATE1 Vmax (MATE1 [4]): 18,720 pmol × mg protein^–1 × min^–1; Km (MATE1 [4]): 1870 µM
CCOC(=O)[C@]1(c2ccccc2)CCC=C[C@H]1NC [Nortilidine]	–	–	–	–	TS DPH hCMEC (hCMEC [5]): 0.53; TS MDAI hCMEC (hCMEC [6]): 0.52; MATE1 ratio (MATE1 [1]): 1.19; MATE2K ratio (MATE2K [3]): 1.42
Cc1nccn1CC1CCc2c(c3ccccc3n2C)C1=O (stereo not shown) [Ondansetron]	1.19	1.24	0.22	0.22	–
Cn1c(=O)[nH]c2ncn(C)c2c1=O [Paraxanthine]	1.00	0.90	1.13	0.93	–
Fc1ccc([C@@H]2CCNC[C@H]2COc2ccc3c(c2)OCO3)cc1 [Paroxetine]	1.92	1.79	0.13	0.07	–
CC(C)NCC(O)COc1cccc2[nH]ccc12 (stereo not shown) [Pindolol]	1.84	1.18	0.59	0.83	–
NC(=O)C1(N2CCCCC2)CCN(CCCC(=O)c2ccc(F)cc2)CC1 [Pipamperone]	1.35	1.32	0.42	0.23	–
CC(C)(C)NCC(O)c1ccc(O)c(CO)n1 (stereo not shown) [Pirbuterol]	12.66	6.00	0.95	1.31	–
CCCOC(C(=O)OC1CCN(C)CC1)(c1ccccc1)c1ccccc1 [Propiverine]	1.20	1.07	0.33	0.44	MATE1 (MATE1 [1]; [8]): 1.2; MATE2 (MATE2K [3]; [9]): 1.07
NC(=O)c1cnccn1 [Pyrazinamide]	0.97	1.05	0.95	1.08	MATE1 (MATE1 [1]; [8]): 0.97; MATE2 (MATE2K [3]; [9]): 1.05
OCCOCCN1CCN(C2=Nc3ccccc3Sc3ccccc32)CC1 [Quetiapine]	1.10	1.28	0.49	0.45	MATE1 (MATE1 [1]; [8]): 1.1; MATE2 (MATE2K [3]; [9]): 1.28
Cc1nc2n(c(=O)c1CCN1CCC(c3noc4cc(F)ccc34)CC1)CCCC2 [Risperidone]	–	–	–	–	TS DPH hCMEC (hCMEC [5]): 0.53; TS MDAI hCMEC (hCMEC [6]): 0.46; MATE1 (MATE1 [1]): 1.07; MATE1 ratio (MATE1 [1]): 1.07; MATE2 (MATE2K [3]): 1.37; MATE2K ratio (MATE2K [3]): 1.37
CCCN1CCCC[C@H]1C(=O)Nc1c(C)cccc1C [Ropivacaine]	1.22	1.49	0.15	0.37	MATE1 (MATE1 [1]; [8]): 1.22; MATE2 (MATE2K [3]; [9]): 1.49
O=C(O[C@H]1CN2CCC1CC2)N1CCc2ccccc2[C@@H]1c1ccccc1 [Solifenacin]	1.28	1.22	0.27	0.44	MATE1 (MATE1 [1]; [8]): 1.28; MATE2 (MATE2K [3]; [9]): 1.22
